According to patent US20230312550A1, “N-(2-(4-CYANOTHIAZOLIDIN-3-YL)-2-OXOETHYL)-QUINOLINE-4-CARBOXAMIDES” (AstraZeneca AB, priority 2020, published 2023):
In brackets after ≈: the same amount, converted by molar mass.

How the values were obtained:
[1] = molecular target: human Fibroblast activation protein alpha (hFAP) (Homo sapiens (Human), UniProt Q12884); assay: hFAP inhibition assay (tight binders); format: biochemical; details: Ala-Pro-AMC 20 μM, n = 1 or geometric mean n = 2-6; also: hFAP 2.4 pM
Chain of human Fibroblast activation protein alpha (hFAP) (Q12884 38-760): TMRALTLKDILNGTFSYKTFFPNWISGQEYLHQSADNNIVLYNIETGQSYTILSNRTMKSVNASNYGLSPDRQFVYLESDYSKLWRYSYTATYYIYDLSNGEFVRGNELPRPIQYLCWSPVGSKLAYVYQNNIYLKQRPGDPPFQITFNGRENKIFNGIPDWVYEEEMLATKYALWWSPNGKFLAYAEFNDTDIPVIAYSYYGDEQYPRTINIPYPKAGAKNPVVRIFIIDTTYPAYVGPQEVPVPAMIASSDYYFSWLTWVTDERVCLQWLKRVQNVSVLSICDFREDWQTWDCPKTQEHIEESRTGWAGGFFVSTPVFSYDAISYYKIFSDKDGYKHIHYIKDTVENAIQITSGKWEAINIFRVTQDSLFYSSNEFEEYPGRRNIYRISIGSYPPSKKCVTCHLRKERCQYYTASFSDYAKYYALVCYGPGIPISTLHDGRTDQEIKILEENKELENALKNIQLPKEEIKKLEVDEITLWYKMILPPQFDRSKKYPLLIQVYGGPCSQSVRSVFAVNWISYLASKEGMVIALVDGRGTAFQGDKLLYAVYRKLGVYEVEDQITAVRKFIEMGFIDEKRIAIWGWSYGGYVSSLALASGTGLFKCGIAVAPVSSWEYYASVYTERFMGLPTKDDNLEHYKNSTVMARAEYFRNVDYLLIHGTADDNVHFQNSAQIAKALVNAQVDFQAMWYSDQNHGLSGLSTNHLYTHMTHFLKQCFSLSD
Experimental: The plates were read on a PHERAstar® reader with excitation 340 nm and emission 460 nm. Data were analyzed in Genedata Screener®. IC50 values were determined by plotting % inhibition versus log compound concentration and using a one site dose response model.

hFAP (M39-A757) = hFAP (M39-A757) (Homo sapiens (Human), UniProt Q12884); assay: hFAP binding assay (surface plasmon resonance); details: SPR, 20° C.; for hFAP Binding assay k(off) / hFAP Binding assay k(on): single cycle kinetics; for Kd: n = 1 or geometric mean n = 2-4
Chain of hFAP (M39-A757) (Q12884 39-757): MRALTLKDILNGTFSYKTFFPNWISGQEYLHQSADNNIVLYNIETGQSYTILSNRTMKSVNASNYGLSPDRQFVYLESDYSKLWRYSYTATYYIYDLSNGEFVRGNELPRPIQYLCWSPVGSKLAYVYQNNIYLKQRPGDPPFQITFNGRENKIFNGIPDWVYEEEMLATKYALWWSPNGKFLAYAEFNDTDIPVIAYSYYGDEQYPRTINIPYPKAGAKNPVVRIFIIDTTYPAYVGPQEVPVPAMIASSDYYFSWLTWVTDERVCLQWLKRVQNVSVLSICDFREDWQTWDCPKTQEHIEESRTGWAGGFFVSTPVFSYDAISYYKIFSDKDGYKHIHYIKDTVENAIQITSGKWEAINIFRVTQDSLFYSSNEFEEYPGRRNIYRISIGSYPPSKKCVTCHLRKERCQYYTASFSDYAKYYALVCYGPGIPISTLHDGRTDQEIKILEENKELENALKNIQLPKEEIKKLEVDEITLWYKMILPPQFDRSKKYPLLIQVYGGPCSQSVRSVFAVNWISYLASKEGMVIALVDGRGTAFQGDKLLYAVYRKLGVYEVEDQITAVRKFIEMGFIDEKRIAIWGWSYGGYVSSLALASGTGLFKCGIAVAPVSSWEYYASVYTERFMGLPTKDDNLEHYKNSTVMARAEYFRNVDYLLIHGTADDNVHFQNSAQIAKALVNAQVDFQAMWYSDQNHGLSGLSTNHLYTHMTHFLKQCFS

[2] = molecular target: Prolyl endopeptidase, Prolyl Oligopeptidase (hPREP) (Homo sapiens (Human), UniProt P48147); assay: hPrep inhibition assay; format: biochemical; details: hPREP 0.6 nM, Z-Gly-Pro-amino-methylcoumarin 50 μM; read-out: PREP IC50
Chain of Prolyl endopeptidase, Prolyl Oligopeptidase (hPREP) (P48147 whole entry): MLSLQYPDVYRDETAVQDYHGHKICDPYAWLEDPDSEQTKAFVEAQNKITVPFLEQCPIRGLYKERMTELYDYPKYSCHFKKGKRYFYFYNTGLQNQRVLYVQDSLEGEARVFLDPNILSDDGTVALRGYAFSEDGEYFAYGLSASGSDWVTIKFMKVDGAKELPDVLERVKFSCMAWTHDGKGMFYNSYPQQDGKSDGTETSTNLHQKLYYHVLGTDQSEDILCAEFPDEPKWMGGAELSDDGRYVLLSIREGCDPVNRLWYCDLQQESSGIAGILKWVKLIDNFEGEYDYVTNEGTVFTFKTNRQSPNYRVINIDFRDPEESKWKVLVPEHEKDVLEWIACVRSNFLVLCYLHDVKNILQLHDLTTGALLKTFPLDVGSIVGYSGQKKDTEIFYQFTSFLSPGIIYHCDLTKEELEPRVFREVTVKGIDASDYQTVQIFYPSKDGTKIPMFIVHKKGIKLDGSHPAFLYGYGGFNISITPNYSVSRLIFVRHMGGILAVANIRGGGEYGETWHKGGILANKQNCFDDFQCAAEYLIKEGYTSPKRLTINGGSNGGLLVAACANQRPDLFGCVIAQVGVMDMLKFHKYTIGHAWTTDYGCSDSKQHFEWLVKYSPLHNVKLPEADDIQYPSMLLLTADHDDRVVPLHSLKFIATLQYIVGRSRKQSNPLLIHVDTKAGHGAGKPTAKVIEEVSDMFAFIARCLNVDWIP
Procedure, shortened: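 Fluorogenic read-out (340 nm excitation, 460 nm emission) after 20 min at rt, using 50 μM final Z-Gly-Pro-aminomethylcoumarin and 0.6 nM final enzyme, following 15 min compound preincubation. Buffer pH 7.5 with glutathione and Triton X-100. IC50 via one-site model on % inhibition vs log concentration.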

Kinetic solubility = details: kinetic from dmso stock
Experimental: Kinetic solubility was measured as described in Comput Aided Mol Des 2015, 29, 795.

[3] = Metabolic stability in rat hepatocytes (rHep); details: n = 1 or geometric mean of n = 2-3
[4] = Metabolic stability in human liver microsomes (HLM); details: human
Experimental: Metabolic stability in HLM was measured as described in J Comput Aided Mol Des 2015, 29, 795.

[5] = Solubility, kinetic solubility, n = 1 or average of n = 2-3
[6] = HLM CLint, n = 1 or average of n = 2-3

| Structure (SMILES) | IC50 [1] [nM] | hFAP Binding assay k(off) (hFAP (M39-A757)) [s⁻¹] | hFAP Binding assay k(on) (hFAP (M39-A757)) [M⁻¹ s⁻¹] | Kd (hFAP (M39-A757)) [nM] | IC50 [2] [nM] | solubility (Kinetic solubility; [5]) [µM] | rHep CLint [3] [μL/min/1E6] | microsomal CLint [4, 6] [µL/min/mg] | solubility (Kinetic solubility) [µM] | microsomal CLint [4] [µL/min/mg] |
| --- | --- | --- | --- | --- | --- | --- | --- | --- | --- | --- |
| N#C[C@@H]1CSCN1C(=O)CNC(=O)c1ccnc2ccc(N3CC4(CCCC4(F)F)C3)cc12 [Example 141, (R)—N-(2-(4-Cyanothiazolidin-3-yl)-2-oxoethyl)-6-(5,5-difluoro-2-azaspiro[3.4]octan-2-yl)quinoline-4-carboxamide] | 0.059 | 0.000078 | 1400000 | 0.062 | 460 |  | 11 |  | 140 (≈ 66 µg/mL) | 54 |
| N#C[C@@H]1CSCN1C(=O)CNC(=O)c1ccnc2ccc(N3CC(CCC(F)(F)F)C3)cc12 [Example 142, (R)—N-(2-(4-Cyanothiazolidin-3-yl)-2-oxoethyl)-6-(3-(3,3,3-trifluoropropyl)azetidin-1-yl)quinoline-4-carboxamide] | 0.088 | 0.000055 | 1800000 | 0.028 | 530 | 1.8 (≈ 0.86 µg/mL) | 6.7 | 43 |  |  |
| N#C[C@@H]1CSCN1C(=O)CNC(=O)c1ccnc2ccc(N3CC(CCF)C3)cc12 [Example 146, (R)—N-(2-(4-Cyanothiazolidin-3-yl)-2-oxoethyl)-6-(3-(2-fluoroethyl)-azetidin-1-yl)quinoline-4-carboxamide] | 0.15 | 0.00017 | 1400000 | 0.12 | 450 | 24 (≈ 10.3 µg/mL) | 4.3 | 11 |  |  |

Continued by falling IC50 [1], values first:

| IC50 [1] [nM] | hFAP Binding assay k(off) (hFAP (M39-A757)) [s⁻¹] | hFAP Binding assay k(on) (hFAP (M39-A757)) [M⁻¹ s⁻¹] | Kd (hFAP (M39-A757)) [nM] | IC50 [2] [nM] | solubility (Kinetic solubility; [5]) [µM] | rHep CLint [3] [μL/min/1E6] | microsomal CLint [4, 6] [µL/min/mg] | Structure (SMILES) | solubility (Kinetic solubility) [µM] | microsomal CLint [4] [µL/min/mg] |
| --- | --- | --- | --- | --- | --- | --- | --- | --- | --- | --- |
| 0.1 | 0.00016 | 2600000 | 0.064 | 840 | 39 (≈ 17.9 µg/mL) | 7.7 | 32 | CC(F)(F)CC1CN(c2ccc3nccc(C(=O)NCC(=O)N4CSC[C@H]4C#N)c3c2)C1 [Example 140, (R)—N-(2-(4-Cyanothiazolidin-3-yl)-2-oxoethyl)-6-(3-(2,2-difluoropropyl)-azetidin-1-yl)quinoline-4-carboxamide] |  |  |
| 0.081 | 0.00051 | 9100000 | 0.049 | 460 | 18 (≈ 8.02 µg/mL) | 7 | 14 | N#C[C@@H]1CSCN1C(=O)CNC(=O)c1ccnc2ccc(N3CC(CC(F)F)C3)cc12 [Example 144, (R)—N-(2-(4-Cyanothiazolidin-3-yl)-2-oxoethyl)-6-(3-(2,2-difluoroethyl)-azetidin-1-yl)quinoline-4-carboxamide] |  |  |
| 0.07 | 0.00013 | 4500000 | 0.029 | 250 | 5.3 (≈ 2.23 µg/mL) | 10 | 40 | N#C[C@@H]1CSCN1C(=O)CNC(=O)c1ccnc2ccc(N3CC(C4CC4)C3)cc12 [Example 145, (R)—N-(2-(4-Cyanothiazolidin-3-yl)-2-oxoethyl)-6-(3-cyclopropylazetidin-1-yl)quinoline-4-carboxamide] |  |  |
| 0.069 | 0.000057 | 1600000 | 0.036 | 460 | 33 (≈ 15.4 µg/mL) | 13 | 40 | N#C[C@@H]1CSCN1C(=O)CNC(=O)c1ccnc2ccc(N3CC(F)(C(F)(F)F)C3)cc12 [Example 143, (R)—N-(2-(4-Cyanothiazolidin-3-yl)-2-oxoethyl)-6-(3-fluoro-3-(trifluoromethyl)azetidin-1-yl)quinoline-4-carboxamide] |  |  |
